{"source": "patent US7034036B2", "about": "“Inhibitors of ABC drug transporters at the blood-brain barrier” (Pain Therapeutics, Inc., priority 2000, dated 2006)", "key": {"mice [1]": {"tested_on": "mice", "assay": "Tail flick anti-nociception, naltrexone given with morphine from day 1 (Groups C, D, combined analysis)", "type": "in vivo", "parameters": "Enhancement of Latency (tail flick) / Enhancement of Latency by Naltrexone (tail flick): unit not given here", "method": "In a third series of experiments, 40 male mice were randomized into 5 groups of eight. All mice were administered single 3 mg/kg morphine daily (b.i.d.), beginning on Day 1.\nIn a final series of experiments, 40 female mice were randomized into 5 groups of eight. All mice were administered single 3 mg/kg morphine daily (b.i.d.), beginning on Day 1."}, "mice [2]": {"tested_on": "mice", "assay": "Tolerance to oxycodone in mice, parallel experiments", "type": "in vivo"}}, "data": [{"smiles": "O=C1CC[C@@]2(O)[C@H]3Cc4ccc(O)c5c4[C@@]2(CCN3CC2CC2)[C@H]1O5", "note": "[Naltrexone, naltrexone]", "values": [{"measurement": "Enhancement of Latency by Naltrexone (tail flick)", "setting": "mice [1]; female mice, Group 4: morphine 3 mg/kg + naltrexone 300 ng/kg b.i.d. from day 1, Day 7", "value": 0.2}, {"measurement": "Enhancement of Latency by Naltrexone (tail flick)", "setting": "mice [1]; female mice, Group 4: morphine 3 mg/kg + naltrexone 300 ng/kg b.i.d. from day 1, Day 10", "value": 5.9}, {"measurement": "Enhancement of Latency by Naltrexone (tail flick)", "setting": "mice [1]; female mice, Group 4: morphine 3 mg/kg + naltrexone 300 ng/kg b.i.d. from day 1, Day 11, single bolus 10 μg/kg naltrexone in addition", "value": 0.8}, {"measurement": "Enhancement of Latency by Naltrexone (tail flick)", "setting": "mice [1]; female mice, Group 5: morphine 3 mg/kg + naltrexone 3000 ng/kg b.i.d. from day 1, Day 1", "value": 12.3}, {"measurement": "Enhancement of Latency by Naltrexone (tail flick)", "setting": "mice [1]; female mice, Group 5: morphine 3 mg/kg + naltrexone 3000 ng/kg b.i.d. from day 1, Day 3", "value": 9.6}, {"measurement": "Enhancement of Latency by Naltrexone (tail flick)", "setting": "mice [1]; female mice, Group 5: morphine 3 mg/kg + naltrexone 3000 ng/kg b.i.d. from day 1, Day 5", "value": 3.4}, {"measurement": "Enhancement of Latency by Naltrexone (tail flick)", "setting": "mice [1]; female mice, Group 5: morphine 3 mg/kg + naltrexone 3000 ng/kg b.i.d. from day 1, Day 7", "value": 1.9}, {"measurement": "Enhancement of Latency by Naltrexone (tail flick)", "setting": "mice [1]; female mice, Group 5: morphine 3 mg/kg + naltrexone 3000 ng/kg b.i.d. from day 1, Day 10", "value": 6.7}, {"measurement": "Enhancement of Latency by Naltrexone (tail flick)", "setting": "mice [1]; female mice, Group 5: morphine 3 mg/kg + naltrexone 3000 ng/kg b.i.d. from day 1, Day 11, single bolus 10 μg/kg naltrexone in addition", "value": "−0.7"}, {"measurement": "Latency versus other doses", "setting": "mice [1]; female mice, dose 0.3 ng/kg as printed, not significantly different from 0.03 or 3 ng/kg", "value": "gave the longest latency"}, {"measurement": "Latency versus other concentrations", "setting": "mice [1]; male mice, Groups A and C combined, days 8 and 10, naltrexone at 300 ng", "value": "gave the greatest latency"}, {"measurement": "Enhancement of Latency by Naltrexone (tail flick)", "setting": "mice [1]; male mice, Group 2: morphine 3 mg/kg + naltrexone 3 ng/kg b.i.d. from day 1, Day 1", "value": 13.3}, {"measurement": "Enhancement of Latency by Naltrexone (tail flick)", "setting": "mice [1]; male mice, Group 2: morphine 3 mg/kg + naltrexone 3 ng/kg b.i.d. from day 1, Day 3", "value": 7.5}, {"measurement": "Enhancement of Latency by Naltrexone (tail flick)", "setting": "mice [1]; male mice, Group 2: morphine 3 mg/kg + naltrexone 3 ng/kg b.i.d. from day 1, Day 5", "value": 4.5}, {"measurement": "Enhancement of Latency by Naltrexone (tail flick)", "setting": "mice [1]; male mice, Group 2: morphine 3 mg/kg + naltrexone 3 ng/kg b.i.d. from day 1, Day 8", "value": 5.5}, {"measurement": "Enhancement of Latency by Naltrexone (tail flick)", "setting": "mice [1]; male mice, Group 2: morphine 3 mg/kg + naltrexone 3 ng/kg b.i.d. from day 1, Day 10", "value": 2.7}, {"measurement": "Enhancement of Latency by Naltrexone (tail flick)", "setting": "mice [1]; male mice, Group 2: morphine 3 mg/kg + naltrexone 3 ng/kg b.i.d. from day 1, Day 12, single bolus 10 μg/kg naltrexone to every mouse", "value": 1.1}, {"measurement": "Enhancement of Latency by Naltrexone (tail flick)", "setting": "mice [1]; male mice, Group 3: morphine 3 mg/kg + naltrexone 30 ng/kg b.i.d. from day 1, Day 1", "value": 12.4}, {"measurement": "Enhancement of Latency by Naltrexone (tail flick)", "setting": "mice [1]; male mice, Group 3: morphine 3 mg/kg + naltrexone 30 ng/kg b.i.d. from day 1, Day 3", "value": 9.3}, {"measurement": "Enhancement of Latency by Naltrexone (tail flick)", "setting": "mice [1]; male mice, Group 3: morphine 3 mg/kg + naltrexone 30 ng/kg b.i.d. from day 1, Day 5", "value": 7.5}, {"measurement": "Enhancement of Latency by Naltrexone (tail flick)", "setting": "mice [1]; male mice, Group 3: morphine 3 mg/kg + naltrexone 30 ng/kg b.i.d. from day 1, Day 8", "value": 7.1}, {"measurement": "Enhancement of Latency by Naltrexone (tail flick)", "setting": "mice [1]; male mice, Group 3: morphine 3 mg/kg + naltrexone 30 ng/kg b.i.d. from day 1, Day 10", "value": 3.2}, {"measurement": "Enhancement of Latency by Naltrexone (tail flick)", "setting": "mice [1]; male mice, Group 3: morphine 3 mg/kg + naltrexone 30 ng/kg b.i.d. from day 1, Day 12, single bolus 10 μg/kg naltrexone to every mouse", "value": "−0.8"}, {"measurement": "Enhancement of Latency by Naltrexone (tail flick)", "setting": "mice [1]; male mice, Group 4: morphine 3 mg/kg + naltrexone 300 ng/kg b.i.d. from day 1, Day 1", "value": 16.3}, {"measurement": "Enhancement of Latency by Naltrexone (tail flick)", "setting": "mice [1]; male mice, Group 4: morphine 3 mg/kg + naltrexone 300 ng/kg b.i.d. from day 1, Day 3", "value": 17.1}, {"measurement": "Enhancement of Latency by Naltrexone (tail flick)", "setting": "mice [1]; male mice, Group 4: morphine 3 mg/kg + naltrexone 300 ng/kg b.i.d. from day 1, Day 5", "value": 11.8}, {"measurement": "Enhancement of Latency by Naltrexone (tail flick)", "setting": "mice [1]; male mice, Group 4: morphine 3 mg/kg + naltrexone 300 ng/kg b.i.d. from day 1, Day 8", "value": 9.4}, {"measurement": "Enhancement of Latency by Naltrexone (tail flick)", "setting": "mice [1]; male mice, Group 4: morphine 3 mg/kg + naltrexone 300 ng/kg b.i.d. from day 1, Day 10", "value": 6.1}, {"measurement": "Enhancement of Latency by Naltrexone (tail flick)", "setting": "mice [1]; male mice, Group 4: morphine 3 mg/kg + naltrexone 300 ng/kg b.i.d. from day 1, Day 12, single bolus 10 μg/kg naltrexone to every mouse", "value": "−0.2"}, {"measurement": "Enhancement of Latency by Naltrexone (tail flick)", "setting": "mice [1]; male mice, Group 5: morphine 3 mg/kg + naltrexone 3000 ng/kg b.i.d. from day 1, Day 1", "value": 13.5}, {"measurement": "Enhancement of Latency by Naltrexone (tail flick)", "setting": "mice [1]; male mice, Group 5: morphine 3 mg/kg + naltrexone 3000 ng/kg b.i.d. from day 1, Day 3", "value": 13.0}, {"measurement": "Enhancement of Latency by Naltrexone (tail flick)", "setting": "mice [1]; male mice, Group 5: morphine 3 mg/kg + naltrexone 3000 ng/kg b.i.d. from day 1, Day 5", "value": 12.0}, {"measurement": "Enhancement of Latency by Naltrexone (tail flick)", "setting": "mice [1]; male mice, Group 5: morphine 3 mg/kg + naltrexone 3000 ng/kg b.i.d. from day 1, Day 8", "value": 10.4}, {"measurement": "Enhancement of Latency by Naltrexone (tail flick)", "setting": "mice [1]; male mice, Group 5: morphine 3 mg/kg + naltrexone 3000 ng/kg b.i.d. from day 1, Day 10", "value": 7.4}, {"measurement": "Enhancement of Latency by Naltrexone (tail flick)", "setting": "mice [1]; male mice, Group 5: morphine 3 mg/kg + naltrexone 3000 ng/kg b.i.d. from day 1, Day 12, single bolus 10 μg/kg naltrexone to every mouse", "value": "−0.7"}, {"measurement": "Enhancement of latency versus other concentrations", "setting": "mice [1]; male mice, naltrexone at 300 ng with morphine 3 mg/kg from day 1, Days 1, 3, 5, 8, 10", "value": "significantly greater"}, {"measurement": "Latency versus other concentrations", "setting": "mice [1]; males and females combined, naltrexone 30 ng/kg and 300 ng/kg, days 1, 3, 5, 6, 8, 10", "value": "significantly longer latency"}, {"measurement": "Development of tolerance to morphine", "setting": "mice [1]; naltrexone in combination with morphine", "value": "prevents the mice from developing a tolerance to morphine"}, {"measurement": "Development of tolerance to oxycodone", "setting": "mice [2]; female mice, 1 or 5 mg/kg oxycodone with 1 pg/kg, 1 ng/kg or 1 μg/kg naltrexone or 1 pg/kg nor-BNI", "value": "None of the mice developed tolerance"}, {"measurement": "Development of tolerance to oxycodone", "setting": "mice [2]; male mice, 0.1 mg/kg oxycodone plus 1 ng/kg naltrexone, 1 ng/kg nalmefene or 1 pg/kg nor-BNI", "value": "did not develop tolerance"}]}]}
